This passage reports IC50 results from US20210170033A1, “NOVEL CONJUGATES OF A PHARMACEUTICAL AGENT AND A MOIETY CAPABLE OF BINDING TO A GLUCOSE SENSING PROTEIN” (SANOFI, priority 2017, published 2021).

The test relates to A2780 cells. In words: Deoxy-glucose uptake assay in A2780 cells (14C 2-deoxy-D-glucose transport). In kind it is cell-based. To be noted: Homo sapiens, 20 min; inhibition of 14C 2-deoxy-D-glucose transport into A2780 cells; 20 min compound incubation; read-out: IC50. The procedure:
1. Deoxy-Glucose Uptake Assay in A2780 Cells:
For measurement of ^14C 2-deoxy-D-glucose transport into A2780 cells, cells were seeded in 96-well plates (Cytostar-T Plates Perkin Elmer, 70,000 cells/180 μl/well) in medium complete (RPMI1640+Glutamax (Life technologies #61870)) and grown for 48 hours. After 48 h, cells were washed once with 180 μL KRB (Krebs Ringer Bicarbonate) buffer, and stimulated in a dose dependent manner by adding 10 μL of test compound dilution 0-1.1 mM (11 times higher concentration than final) or 10 μL of 1.1 mM Cytochalasin B solution as negative control, to 90 μL KRB buffer and incubated for 20 minutes. After compound stimulation, the transport of ^14C 2-deoxy-D-glucose was started by adding of 50 μL 2-^14C[U] 2-deoxy-D-glucose solution (109.1 μM 2-deoxy-D-glucose cold and 33 μM 2-^14C[U] 2-deoxy-D-glucose 0.1 μCi/well) for 20 minutes. Transport was stopped by adding 50 μL/well 96 μM Cytochalasin B solution. Plates were measured in a 96-well Wallac Microbeta device. The cpm (counts per minute) values were used to determine the % inhibition values for the test compounds within each experiment. In a first step, the mean background value generated by Cytochalasin B (a potent glucose transporter inhibitor) treated cells, was subtracted from the mean values of the treated cells. All mean values were obtained from triplicates. For %-Inhibition results, the mean value of the untreated cells (just KRB) was set as 100%. All other mean values were calculated to this relation. IC50 were obtained by regression analysis of dose response curve with 7 or 14 concentrations, respectively, for each compound.
For the compound `COc1cc(OCc2cccc(OCCCCCC(=O)O)c2)c(Cl)cc1C(=O)N[C@H]1[C@@H](OC)O[C@H](CO)[C@@H](O)[C@@H]1O` [Example 398], the concentration for half-maximal inhibition (IC50) came to 85.9 µM.

Turning to `COC(=O)[C@H](CCCCNC(=O)COCCOCC(=O)NCc1cccc(COc2cc(OC)c(C(=O)O[C@H]3[C@@H](OC)O[C@H](CO)[C@@H](O)[C@@H]3O)cc2Cl)c1)NC(=O)OC(C)(C)C` [Example 399], the IC50 stood at 20.2 µM.

As for `COc1cc(OCc2cccc(NC(=O)COCCOCC(=O)O)c2)c(Cl)cc1C(=O)O[C@H]1[C@@H](OC)O[C@H](CO)[C@@H](O)[C@@H]1O` [Example 400], the IC50 was 47.1 µM.

With `COc1cc(OCc2cccc(CNC(=O)CCC(=O)NCCCCCC(=O)O)c2)c(Cl)cc1C(=O)O[C@H]1[C@@H](OC)O[C@H](CO)[C@@H](O)[C@@H]1O` [Example 405], the 50% inhibitory concentration (IC50) came out at 60.5 µM.

For `COc1cc(OCc2cccc(CNC(=O)CCCCCCC(=O)O)c2)c(Cl)cc1C(=O)O[C@H]1[C@@H](OC)O[C@H](CO)[C@@H](O)[C@@H]1O` [Example 408], the IC50 was 45 µM.

On to `COC(=O)[C@H](CCCCNC(=O)CCCCCNC(=O)CCC(=O)NCc1cccc(COc2cc(OC)c(C(=O)O[C@H]3[C@@H](OC)O[C@H](CO)[C@@H](O)[C@@H]3O)cc2Cl)c1)NC(=O)OC(C)(C)C` [Example 411], for which the IC50 was 25.9 µM.

As for `COC(=O)[C@H](CCCCNC(=O)CCCCCCC(=O)Nc1cccc(COc2cc(OC)c(C(=O)O[C@H]3[C@@H](OC)O[C@H](CO)[C@@H](O)[C@@H]3O)cc2Cl)c1)NC(=O)OC(C)(C)C` [Example 414], the half-maximal inhibitory concentration (IC50) amounted to 0.7 µM.

As for `COc1cc(OCc2nc3ccccc3n2CCCCCCCCCCCCCCCC(=O)O)c(Cl)cc1C(=O)N[C@H]1[C@@H](OC)O[C@H](CO)[C@@H](O)[C@@H]1O` [Example 421], the IC50 turned out to be 15.1 µM.

Consider `COc1cc(OCc2cccc(CNC(=O)CCCCCCCCC(=O)OC(C)(C)C)c2)c(Cl)cc1C(=O)N[C@H]1[C@@H](OC)O[C@H](CO)[C@@H](O)[C@@H]1O` [Example 427], for which the IC50 was 60.5 µM.

`COc1cc(OCc2cccc(NC(=O)CCC(=O)OC(C)(C)C)c2)c(Cl)cc1C(=O)N[C@H]1[C@@H](OC)O[C@H](CO)[C@@H](O)[C@@H]1O` [Example 428]: the half-inhibitory concentration (IC50) was found to be 4.4 µM.

For `COc1cc(OCc2cccc(NC(=O)CCCC(=O)OC(C)(C)C)c2)c(Cl)cc1C(=O)N[C@H]1[C@@H](OC)O[C@H](CO)[C@@H](O)[C@@H]1O` [Example 429], the IC50 came to 2.9 µM.

Consider `COc1cc(OCc2cccc(NC(=O)CCCCCCCCC(=O)OC(C)(C)C)c2)c(Cl)cc1C(=O)N[C@H]1[C@@H](OC)O[C@H](CO)[C@@H](O)[C@@H]1O` [Example 431], for which the half-maximal inhibitory concentration (IC50) was found to be 6.1 µM.

Take `COC(=O)[C@H](CCCCNC(=O)CCC(=O)NCc1cccc(COc2cc(OC)c(C(=O)N[C@H]3[C@@H](OC)O[C@H](CO)[C@@H](O)[C@@H]3O)cc2Cl)c1)NC(=O)OC(C)(C)C` [Example 435]: the IC50 was determined as 45.3 µM.

Regarding `COC(=O)[C@H](CCCCNC(=O)CCCC(=O)NCc1cccc(COc2cc(OC)c(C(=O)N[C@H]3[C@@H](OC)O[C@H](CO)[C@@H](O)[C@@H]3O)cc2Cl)c1)NC(=O)OC(C)(C)C` [Example 436], the concentration for half-maximal inhibition (IC50) stood at 34.2 µM.

With `COc1c(C(=O)N[C@H]2[C@H](OC)O[C@H](CO)[C@@H](O)[C@@H]2O)cc(Cl)c(OCc2cccc(CNC(=O)OC(C)(C)C)c2)c1Cl` [Example 447], the IC50 turned out to be 30.6 µM.

For the compound `CO[C@H]1O[C@H](CO)[C@@H](O)[C@H](O)[C@H]1NC(=O)c1cc(Cl)c(OCc2cccc(CNC(=O)CCC(=O)OC(C)(C)C)c2)c(Cl)c1C` [Example 449], the half-maximal inhibitory concentration (IC50) was 18.5 µM.

In the case of `CO[C@H]1O[C@H](CO)[C@@H](O)[C@H](O)[C@H]1NC(=O)c1cc(Cl)c(OCc2cccc(CNC(=O)CCCC(=O)OC(C)(C)C)c2)c(Cl)c1C` [Example 450], the IC50 was found to be 25.8 µM.

Consider `CO[C@H]1O[C@H](CO)[C@@H](O)[C@H](O)[C@H]1NC(=O)c1cc(Cl)c(OCc2cccc(NC(=O)CCCCCCC(=O)OC(C)(C)C)c2)c(Cl)c1C` [Example 454], for which the half-maximal inhibitory concentration (IC50) worked out at 25.6 µM.

On to `CO[C@H]1O[C@H](CO)[C@@H](O)[C@H](O)[C@H]1OC(=O)c1cc(Cl)c(OCc2cccc(CNC(=O)CCCCCCCCC(=O)OC(C)(C)C)c2)c(Cl)c1C` [Example 456], for which the IC50 came to 25 µM.

`COc1cc(OCc2cccc(CNC(=O)CCCCCCC(=O)NCCCCCC(=O)OC(C)(C)C)c2)c(Cl)cc1C(=O)N[C@H]1[C@@H](OC)O[C@H](CO)[C@@H](O)[C@@H]1O` [Example 457]: the half-inhibitory concentration (IC50) was 31.7 µM.

With `COC(=O)[C@H](CCCCNC(=O)CCCC(=O)NCc1cccc(COc2c(Cl)cc(C(=O)N[C@H]3[C@@H](OC)O[C@H](CO)[C@@H](O)[C@@H]3O)c(C)c2Cl)c1)NC(=O)OC(C)(C)C` [Example 460], the IC50 was 84.6 µM.

Take `COC(=O)[C@H](CCCCNC(=O)CCCC(=O)Nc1cccc(COc2c(Cl)cc(C(=O)N[C@H]3[C@@H](OC)O[C@H](CO)[C@@H](O)[C@@H]3O)c(C)c2Cl)c1)NC(=O)OC(C)(C)C` [Example 463]: the half-maximal inhibitory concentration (IC50) is 25.1 µM.

For the compound `COC(=O)[C@H](CCCCNC(=O)CCCCCCC(=O)Nc1cccc(COc2c(Cl)cc(C(=O)N[C@H]3[C@@H](OC)O[C@H](CO)[C@@H](O)[C@@H]3O)c(C)c2Cl)c1)NC(=O)OC(C)(C)C` [Example 464], the IC50 is 44 µM.

Regarding `COC(=O)[C@H](CCCCNC(=O)CCCCCCCCC(=O)Nc1cccc(COc2c(Cl)cc(C(=O)N[C@H]3[C@@H](OC)O[C@H](CO)[C@@H](O)[C@@H]3O)c(C)c2Cl)c1)NC(=O)OC(C)(C)C` [Example 465], the IC50 came out at 49.9 µM.

On to `COc1cc(OCc2cccc(NC(=O)CCCCCCC(=O)NCCCCCC(=O)OC(C)(C)C)c2)c(Cl)cc1C(=O)N[C@H]1[C@@H](OC)O[C@H](CO)[C@@H](O)[C@@H]1O` [Example 466], for which the IC50 came to 3.4 µM.

With `COc1cc(OCc2cccc(NC(=O)CCCCCCCCC(=O)NCCCCCC(=O)OC(C)(C)C)c2)c(Cl)cc1C(=O)N[C@H]1[C@@H](OC)O[C@H](CO)[C@@H](O)[C@@H]1O` [Example 467], the IC50 turned out to be 27.9 µM.

With `COC(=O)[C@H](CCCCNC(=O)CCCCCNC(=O)CCCCCCC(=O)NCc1cccc(COc2cc(OC)c(C(=O)N[C@H]3[C@@H](OC)O[C@H](CO)[C@@H](O)[C@@H]3O)cc2Cl)c1)NC(=O)OC(C)(C)C` [Example 468], the concentration for half-maximal inhibition (IC50) amounted to 27.8 µM.

Turning to `COC(=O)CCCCCCCn1c(COc2cc(OC)c(C(=O)N[C@H]3[C@@H](OC)O[C@H](CO)[C@@H](O)[C@@H]3O)cc2Cl)nc2ccccc21` [Example 470], the IC50 stood at 61.4 µM.

As for `COc1cc(OCc2coc(-c3ccc(C(F)(F)F)cc3)n2)c(Cl)cc1C(=O)O[C@H]1[C@@H](OC)O[C@H](CO)[C@@H](O)[C@@H]1O` [Example 473], the half-inhibitory concentration (IC50) is under 0.1 µM.

As for `COc1cc(OCc2coc(-c3ccc(Cl)cc3)n2)c(Cl)cc1C(=O)O[C@H]1[C@@H](OC)O[C@H](CO)[C@@H](O)[C@@H]1O` [Example 474], the half-maximal inhibitory concentration (IC50) is under 0.1 µM.

As to `COc1cc(OCc2cnc(-c3ccc(Cl)cc3)o2)c(Cl)cc1C(=O)O[C@H]1[C@@H](OC)O[C@H](CO)[C@@H](O)[C@@H]1O` [Example 475], the IC50 was under 0.1 µM.

With `COc1cc(OCc2ccc(-c3csnn3)cc2)c(Cl)cc1C(=O)O[C@H]1[C@@H](OC)O[C@H](CO)[C@@H](O)[C@@H]1O` [Example 476], the IC50 was under 0.1 µM.

In the case of `COc1cc(OCc2nnc(-c3ccc(Cl)cc3)s2)c(Cl)cc1C(=O)O[C@H]1[C@@H](OC)O[C@H](CO)[C@@H](O)[C@@H]1O` [Example 477], the IC50 stood at 3.7 µM.

Broadly, the IC50 is the concentration at which inhibition is half-maximal.
